The subject of data set [1] is mouse. The settings on record: Subchronic oral toxicity in rodents, b6c3f1, Feed, dose end: 8 week, group: systemic.
The test system of data set [2] is mouse. As to conditions: Carcinogenicity, b6c3f1, Oral, Feed, dose end: 78 week, group: systemic.
Data set [3] deals with rat. As to conditions: Carcinogenicity, fischer, Oral, Feed, dose end: 78 week, group: systemic.
For data set [4], the system named is rat. The settings on record: Subchronic oral toxicity in rodents, fischer, Feed, dose end: 8 week, group: systemic.
The test system of data set [5] is rat. As to conditions: Prenatal developmental toxicity study, wistar, Oral, Gavage/Intubation, dose end: 16 GD.
Data set [6] concerns rat. As to conditions: Combined chronic toxicity/carcinogenicity, sprague dawley, Oral, Feed, dose end: 24 month, group: systemic.
The test system of data set [7] is rat. As to conditions: Multigenerational reproductive toxicity study, sprague dawley, Oral, Feed, dose end: 2 generation.
Data set [8] relates to rat. As to conditions: Subchronic oral toxicity in rodents, sprague dawley, Feed, dose end: 90 day, group: systemic.
The test system of data set [9] is dog. As to conditions: Subchronic oral toxicity in dogs, beagle, Capsule, dose end: 90 day, group: systemic, systemic / clinical chemistry / alanine aminotransferase (alt/sgpt) / alanine aminotransferase (alt/sgpt) + systemic / clinical chemistry / ….
Data set [10] relates to dog. As to conditions: Chronic toxicity, beagle, Oral, Capsule, dose end: 52 week, group: systemic.
In data set [11] the test system is rabbit. The settings on record: Prenatal developmental toxicity study, new zealand white, Oral, Gavage/Intubation, dose end: 19 GD.
The test system of data set [12] is rat. As to conditions: Subchronic oral toxicity in rodents, fischer, Feed, dose end: 13 week, group: systemic.
Data set [13] has as its system mouse. The settings on record: Carcinogenicity, b6c3f1, Oral, Feed, dose end: 2 year, group: systemic.
Data set [14] relates to mouse. As to conditions: Subchronic oral toxicity in rodents, b6c3f1, Feed, dose end: 13 week, group: systemic, systemic / in life observation / body weight / body weight + systemic / in life observation / food consumption / food consumption.
For data set [15], the system named is rat. As to conditions: Combined chronic toxicity/carcinogenicity, fischer, Oral, Feed, dose end: 2 year, group: systemic.
The test system of data set [16] is rat. As to conditions: Other (NonGuideline or Guideline Not Listed), sprague dawley, Oral, Gavage/Intubation, dose end: 7 day, group: cannot be grouped.
The mark [17] stands for this setting: systemic / in life observation / body weight / body weight.
The mark [18] stands for this setting: systemic / in life observation / body weight / body weight + systemic / in life observation / mortality / mortality.
Setting [19] is: systemic / in life observation / body weight / body weight + systemic / pathology microscopic / gallbladder / hyperplasia.
The mark [20] stands for this setting: systemic / in life observation / body weight / body weight + systemic / pathology microscopic / gallbladder / hyperplasia + systemic / ….
The mark [21] stands for this setting: systemic / in life observation / body weight / body weight + systemic / pathology microscopic / urinary bladder / carcinoma + systemic / ….
Where [22] appears, read: group: developmental, developmental / developmental malformation / bone / delayed ossification + developmental / developmental malformation / bone / full ….
Where [23] appears, read: group: maternal, reproductive / offspring survival early / offspring survival early other / NOS + systemic / in life observation / body weight / body weight ….
Where [24] appears, read: systemic / hematology / platelet / platelet.
Setting [25] is: systemic / pathology microscopic / adrenal gland / vacuolization + systemic / pathology microscopic / liver / fatty change + systemic / ….
The mark [26] stands for this setting: group: offspring, systemic / in life observation / body weight / offspring (pup) weight gain + systemic / pathology gross / liver / discolored + systemic / ….
The mark [27] stands for this setting: group: parental, systemic / organ weight / liver / nos + systemic / pathology gross / liver / accentuated lobular pattern + systemic / pathology gross / ….
Where [28] appears, read: group: reproductive, reproductive / offspring survival early / litter size / litter size.
Where [29] appears, read: systemic / clinical chemistry / aminopyrine-n-demethylase / aminopyrine-n-demethylase.
The mark [30] stands for this setting: systemic / organ weight / liver / absolute + systemic / clinical chemistry / alanine aminotransferase (alt/sgpt) / alanine aminotransferase….
[31] abbreviates: group: developmental, systemic / in life observation / body weight / fetal weight.
The mark [32] stands for this setting: group: developmental, systemic / in life observation / body weight / fetal weight + developmental / developmental malformation / bone / hole(s).
Where [33] appears, read: group: maternal, systemic / in life observation / body weight / body weight gain + systemic / in life observation / food consumption / food consumption.
[34] abbreviates: systemic / in life observation / body weight / body weight + systemic / in life observation / food consumption / food consumption.
The mark [35] stands for this setting: systemic / in life observation / food consumption / food consumption.
The mark [36] stands for this setting: systemic / in life observation / food consumption / food consumption + systemic / pathology microscopic / lung / adenoma/carcinoma combined….
[37] abbreviates: systemic / clinical chemistry / alanine aminotransferase (alt/sgpt) / alanine aminotransferase (alt/sgpt) + systemic / clinical chemistry / ….
The mark [38] stands for this setting: systemic / in life observation / body weight / body weight gain + systemic / in life observation / clinical signs / defecation + systemic / ….

SMILES strings stand for the structures.

Broadly, the LOAEL is the lowest tested level that showed an adverse finding. As usually defined, the NOAEL is the highest dose or exposure tested at which no adverse effect was seen. In the case of `Nc1ccc(Cl)cc1N` [4-Chloro-1,2-diaminobenzene], the LEL in data set [1] (setting [17]) is 1500 mg/kg/day; in data set [2] (setting [20]), 1050 mg/kg/day; in data set [3] (setting [21]), 250 mg/kg/day; in data set [4] (setting [17]), 500 mg/kg/day. In addition, the LOAEL in data set [1] (setting [17]) was determined as 1500 mg/kg/day; in data set [2] (setting [19]), 1050 mg/kg/day; in data set [3] (setting [17]), 250 mg/kg/day; in data set [4] (setting [17]), 500 mg/kg/day. Moreover, the NEL in data set [1] (setting [18]) was 150 mg/kg/day; in data set [2] (setting [20]), less than 1050 mg/kg/day; in data set [3] (setting [21]) it was less than 250 mg/kg/day; in data set [4] (setting [18]) it was 50 mg/kg/day. In addition, the NOAEL in data set [1] (setting [18]) is 150 mg/kg/day; in [2] (setting [19]), less than 1050 mg/kg/day; in [3] (setting [17]) it was less than 250 mg/kg/day; in data set [4] (setting [18]), 50 mg/kg/day.

Regarding `CCCCC(O)(Cn1cncn1)c1ccc(Cl)cc1Cl` (stereo not given) [Hexaconazole], the LEL came to 2.5 mg/kg/day in [5] (setting [22]); 250 mg/kg/day in [5] (setting [23]); 0.47 mg/kg/day in data set [6] (setting [24]); 50 mg/kg/day in data set [7] (setting [26]); 5 mg/kg/day in data set [7] (group: parental, systemic / pathology microscopic / liver / fatty change); 50 mg/kg/day in data set [7] (setting [28]). Moreover, the LEL turned out to be 2.5 mg/kg/day in data set [8] (setting [29]); 25 mg/kg/day in data set [9]; 10 mg/kg/day in data set [10] (systemic / organ weight / liver / absolute + systemic / pathology microscopic / liver / lipid deposition + systemic / clinical chemistry / …); 50 mg/kg/day in [11] (setting [31]); 100 mg/kg/day in data set [11] (setting [33]). Also, the LOAEL in data set [5] (setting [22]) is 2.5 mg/kg/day; in data set [5] (setting [23]) it was 250 mg/kg/day; in data set [6] (setting [25]), 4.7 mg/kg/day; in data set [7] (setting [26]), 50 mg/kg/day; in data set [7] (setting [27]), 50 mg/kg/day; in data set [7] (setting [28]) it was 50 mg/kg/day. The LOAEL in [8] (systemic / pathology microscopic / adrenal gland / vacuolization + systemic / pathology microscopic / liver / fatty change) worked out at 25 mg/kg/day; in [9], 25 mg/kg/day; in data set [10] (systemic / organ weight / liver / absolute + systemic / pathology microscopic / liver / lipid deposition), 10 mg/kg/day; in data set [11] (setting [31]), 50 mg/kg/day; in data set [11] (group: maternal, systemic / in life observation / body weight / body weight gain), 100 mg/kg/day. Also, the NEL is less than 2.5 mg/kg/day in [5] (setting [22]); 25 mg/kg/day in [5] (setting [23]); less than 0.47 mg/kg/day in data set [6] (setting [24]); 5 mg/kg/day in data set [7] (setting [26]); 1 mg/kg/day in [7] (setting [27]); 5 mg/kg/day in data set [7] (setting [28]). Besides, the NEL was less than 2.5 mg/kg/day in data set [8] (setting [29]); 5 mg/kg/day in data set [9]; 2 mg/kg/day in data set [10] (setting [30]); 25 mg/kg/day in [11] (setting [32]); 50 mg/kg/day in data set [11] (setting [33]). Further, the NOAEL in data set [5] (setting [22]) was less than 2.5 mg/kg/day; in data set [5] (setting [23]) it was 25 mg/kg/day; in data set [6] (setting [25]) it was 0.47 mg/kg/day; in [7] (setting [26]) it was 5 mg/kg/day; in [7] (setting [27]) it was 5 mg/kg/day; in data set [7] (setting [28]), 5 mg/kg/day. Moreover, the NOAEL stood at 2.5 mg/kg/day in [8] (systemic / pathology microscopic / adrenal gland / vacuolization + systemic / clinical chemistry / alanine aminotransferase (alt/sgpt) / …); 5 mg/kg/day in data set [9]; 2 mg/kg/day in [10] (setting [30]); 25 mg/kg/day in data set [11] (setting [32]); 50 mg/kg/day in [11] (setting [33]).

For `Oc1cccc2cccnc12` [8-Hydroxyquinoline], the lowest observed adverse effect level (LOAEL) in data set [12] (setting [34]) is 300 mg/kg/day; in data set [13] (setting [34]) it was more than 396 mg/kg/day; in data set [14], 900 mg/kg/day; in [15] (setting [36]), more than 143 mg/kg/day. Further, the NEL in [12] (setting [34]) was 75 mg/kg/day; in data set [13] (setting [35]), less than 217 mg/kg/day; in [14], 450 mg/kg/day; in data set [15] (setting [35]), less than 73 mg/kg/day. In addition, the NOAEL in [12] (setting [34]) was 150 mg/kg/day; in data set [13] (setting [34]), not below 396 mg/kg/day; in [14], 450 mg/kg/day; in data set [15] (setting [36]) it was not below 143 mg/kg/day. For the same compound, the LEL in data set [12] (setting [35]) came to 150 mg/kg/day; in data set [13] (setting [35]), 217 mg/kg/day; in [14], 900 mg/kg/day; in data set [15] (setting [35]), 73 mg/kg/day.

Turning to `CCOc1cccc(-n2cc(C(=O)N3CCN(c4cc(C(=O)[O-])c5ccccc5c4)CC3)nc2-c2ccc(C)cc2)c1.[Na+]`, in [16] (setting [37]), the LOAEL is more than 500 mg/kg/day and the NOAEL is not below 500 mg/kg/day. Also, in [16] (setting [38]), the LEL turned out to be 10 mg/kg/day and the NEL was less than 10 mg/kg/day.

For the origin of these results see EPA's ToxRefDB 2.
